Test [1] concerns the target T1, TARC binding to Hut78 cells (Homo sapiens, UniProt P51679).
T1 construct: host or cells: Hut78 cells (whole cells)
T1 sequence (P51679 1-360): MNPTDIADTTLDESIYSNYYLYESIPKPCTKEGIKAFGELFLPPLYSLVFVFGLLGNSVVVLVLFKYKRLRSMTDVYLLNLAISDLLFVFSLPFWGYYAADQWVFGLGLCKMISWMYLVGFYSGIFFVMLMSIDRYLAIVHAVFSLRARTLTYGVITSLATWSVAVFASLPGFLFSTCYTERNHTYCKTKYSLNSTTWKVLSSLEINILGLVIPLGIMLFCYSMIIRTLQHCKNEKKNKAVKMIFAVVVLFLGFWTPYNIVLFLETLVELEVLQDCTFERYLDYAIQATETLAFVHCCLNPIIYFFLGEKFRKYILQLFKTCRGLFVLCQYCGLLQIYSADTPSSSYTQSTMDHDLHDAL
Kind of test: Inhibitory activity on binding of [125I]-TARC to Hut78 cells. Particulars: for inhibition at 1 µM: read-out: The Binding Inhibitory Rates at 1 μmol/L (%). How it is done:
Inhibitory Activity on Binding of [^125I]-TARC to Hut78 Cells
The RPMI-1640 medium (Sigma-Aldrich Japan) containing 20 mmol/L HEPES [4-(2-hydroxyethyl)-1-piperazinylethanesulfonic acid; HEPES, Nacalai Tesque, Inc.] and 0.1 w/v % bovine serum albumin (SEIKAGAKU CORPORATION) was adjusted to pH 7.0 with sodium hydrogencarbonate (Wako Pure Chemical Industries, Ltd.) to yield a binding/wash buffer. In a 96-well round-bottomed plate (Corning Costar Corporation) were placed 60 μL of a suspension of Hut78 cells (ATCC No. TIB-161) (3×10^5 cells) in the binding/wash buffer, 20 μL of a solution of a test compound and 20 μL of a solution of 810 Bq of [^125I]-TARC (Amersham Biosciences K.K.) diluted with the binding/wash buffer up to the total aliquot of 100 μL, followed by reaction at room temperature for two hours. The solution of the test compound had been prepared by dissolving the test compound in dimethyl sulfoxide (Nacalai Tesque, Inc.) to a concentration of 10 mmol/L, and diluting the solution with the binding/wash buffer to a series of concentrations. The nonspecific binding was determined by a binding assay in the presence of a sufficient amount of unlabeled TARC. The total binding was defined as a binding in the case where dimethyl sulfoxide (Nacalai Tesque, Inc.) was added, instead of the test compound, in the same concentration (0.1 v/v %). After binding [^125I]-TARC to Hut78 cells, 50 μL of a polyethyleneimine solution (Nacalai Tesque, Inc.) diluted to 0.3 w/v % with the binding/wash buffer was added each of wells of a glass filter (Unifilter GF/B96, Packard BioScience Company), was rapidly filtrated using Filtermate 196 (Packard BioScience Company) and washed with the binding/wash buffer at 4° C. to thereby separate the radioactive ligand which is not bound to the cells. Microscinti 20 (Packard BioScience Company) was placed in each well at 50 μL/well, and the radioactivity on the glass filter was determined using Topcount NXT™ (Packard BioScience Company). The binding inhibitory rates (%) of the test compounds were determined by calculation according to the following equation: [formula] Total binding: [^125I]-TARC binding radioactivity without addition of the test compound Binding upon addition of test compound: [^125I]-TARC binding radioactivity at respective concentration upon addition of test compound
Nonspecific binding: [^125I]-TARC binding radioactivity upon addition of unlabeled TARC

Test [2] has as its system CD4-positive T cells and eosinophils in the bronchoalveolar lavage fluid. The experiment in a line: Inhibitory activities on antigen-induced cellular infiltration (ovalbumin-sensitized mice, bronchoalveolar lavage fluid). The format is in vivo, BALB/c mice. On the procedure: Inhibitory Activities on Antigen-Induced Cellular Infiltration and Cytokine Production
BALB/c mice were sensitized by intraperitoneally administrating 50 μg of ovalbumin (Sigma-Aldrich Japan) and 1 mg of aluminum hydroxide (Wako Pure Chemical Industries, Ltd.) and further sensitized in the same manner on the 7th day from the first sensitization (0 day). From on the 23rd day, the mice were allowed to inhale a 1% ovalbumin physiological saline solution [prepared by dissolving ovalbumin in physiological saline (Otsuka Pharmaceutical Co., Ltd.) to a concentration 1%] using Supersonic Nebulizer NE-U 12 (OMRON Corporation) for 30 minutes once per 2 days (antigen nebulization). DMSO (Kanto Kagaku), Tween 80 (Wako Pure Chemical Industries), and 10 mmol/L acetic acid buffer containing 0.9% sodium chloride were mixed at a ratio of 5 to 5 to 90, whereby a liquid (an administration solvent) was prepared. Each test compound was dissolved in the administration solvent, whereby a solution for subcutaneous administration was prepared. The mice were grouped into test compound-administered groups and a control group. The test compound was subcutaneously administered to the mice of each of the test compound-administered groups at a dose of 30 mg/kg and the administration solvent was subcutaneously administered to the mice of the control group 30 minutes prior to the fourth antigen nebulization and after 4 hours from the fourth antigen nebulization. 8 hours after the fourth antigen nebulization, the bronchoalveolar lavage of each mouse was performed to obtain a bronchoalveolar lavage fluid. The number of CD4-positive T cells and eosinophils in the bronchoalveolar lavage fluid were counted. 10 mice were subjected to the each group in the test.

Setting [3] is: test compound 1 μmol/L, [125I]-TARC, Hut78 cells, room temperature, two hours.

Read-outs that look alike come from different tables or passages of the source.

Take “4-(2,4-difluorobenzylamino)-5-(2,4-difluorophenyl)-2-[4-(1-methylpiperidinio)piperidino]pyrimidine iodide [Compound 72]”: in test [1] (setting [3]), the “The Binding Inhibitory Rates at 1 μmol/L (%)” value worked out at 96%. Take `CC1CCCN(C2CCN(c3ncc(-c4ccc(F)cc4F)c(NCc4ccc(F)cc4F)n3)CC2)C1` (centres unmarked) [Compound 1, 4-(2,4-difluorobenzylamino)-5-(2,4-difluorophenyl)-2-[4-(3-methylpiperidino)piperidino]pyrimidine]: in test [1], the inhibition at 1 µM was found to be 91%. Still for that read-out and setting: as for `CC1CCCCN1C1CCN(c2ncc(-c3ccc(F)cc3F)c(NCc3ccc(F)cc3F)n2)CC1` (centres unmarked) [Compound 3, 4-(2,4-difluorobenzylamino)-5-(2,4-difluorophenyl)-2-[4-(2-methylpiperidino)piperidino]pyrimidine], the figure is 93%. Regarding `NC(=O)C1CCCN(C2CCN(c3ncc(-c4ccc(F)cc4F)c(NCc4ccc(F)cc4F)n3)CC2)C1` (centres unmarked) [Compound 8, 2-[4-(3-carbamoylpiperidino)piperidino]-4-(2,4-difluorobenzylamino)-5-(2,4-difluorophenyl)pyrimidine], the inhibition at 1 µM in test [1] (setting [3]) was found to be 92%. Also, the “number of eosinophils in a bronchoalveolar lavage fluid obtained from each mouse” value in test [2] (30 mg/kg subcutaneously 30 minutes prior to and 4 hours after fourth antigen nebulization, lavage 8 hours after, mean±standard error, control (1.5±0.1)×10^5) was “(0.6±0.1)×10^5”. Also, the “number of CD4-positive T cells in a bronchoalveolar lavage fluid obtained from each mouse” value in test [2] (30 mg/kg subcutaneously 30 minutes prior to and 4 hours after fourth antigen nebulization, lavage 8 hours after, mean±standard error, control (1.9±0.2)×10^4) is “(0.6±0.1)×10^4”. Further, the “number of CD4-positive T cells less than that of the control group” value in test [2] (30 mg/kg subcutaneously, bronchoalveolar lavage fluid, P<0.0001, Aspin-Welch test) came out at 68%. In addition, the “number of eosinophils less than that of the control group” value in test [2] (30 mg/kg subcutaneously, bronchoalveolar lavage fluid, P<0.0001, Student's test) stood at 57%.

On to `CC1CCCN(C2CCN(c3ncc(-c4ccc(F)cc4F)c(NCc4c(F)cccc4F)n3)CC2)C1` (centres unmarked) [Compound 15, 4-(2,6-difluorobenzylamino)-5-(2,4-difluorophenyl)-2-[4-(3-methylpiperidino)piperidino]pyrimidine], for which the inhibition at 1 µM in test [1] was 90%. As for `Fc1ccc(-c2cnc(N3CCC(N4CCCCC4)CC3)nc2NCc2c(F)cccc2F)c(F)c1` [Compound 40, 4-(2,6-difluorobenzylamino)-5-(2,4-difluorophenyl)-2-(4-piperidinopiperidino)pyrimidine], the inhibition at 1 µM in test [1] (setting [3]) amounted to 89%. As for `Fc1ccc(-c2cnc(N3CCC(N4CCCCC4)CC3)nc2NCc2ccc(Cl)cc2F)c(F)c1` [Compound 58, 4-(4-chloro-2-fluorobenzylamino)-5-(2,4-difluorophenyl)-2-(4-piperidinopiperidino)pyrimidine], in test [1] (setting [3]), the inhibition at 1 µM stood at 81%.

Turning to `Fc1ccc(-c2cnc(N3CCC(N4CCCCC4)CC3)nc2NCc2c(F)cccc2Cl)c(F)c1` [Compound 61, 4-(2-chloro-6-fluorobenzylamino)-5-(2,4-difluorophenyl)-2-(4-piperidinopiperidino)pyrimidine], the inhibition at 1 µM in test [1] (setting [3]) was determined as 82%.

For the compound `CC[N+]1(C2CCN(c3ncc(-c4ccc(F)cc4F)c(NCc4ccc(F)cc4F)n3)CC2)CCCCC1.[I-]` [Compound 73, 4-(2,4-difluorobenzylamino)-5-(2,4-difluorophenyl)-2-[4-(1-ethylpiperidinio)piperidino]pyrimidine iodide], in test [1] (setting [3]), the “The Binding Inhibitory Rates at 1 μmol/L (%)” value is recorded as 99%. Regarding `C=CC[N+]1(C2CCN(c3ncc(-c4ccc(F)cc4F)c(NCc4ccc(F)cc4F)n3)CC2)CCCCC1.[Br-]` [Compound 75, 2-[4-(1-allylpiperidinio)piperidino]-4-(2,4-difluorobenzylamino)-5-(2,4-difluorophenyl)pyrimidine bromide], the “The Binding Inhibitory Rates at 1 μmol/L (%)” value in test [1] (setting [3]) turned out to be 97%.

Source of the values: patent publication US20060194811A1, “Pyrimidine derivatives” (KYOWA HAKKO KOGYO CO., LTD., priority 2003, published 2006).
